Two compounds from patent publication US20120178147A1, “MICROBIAL CULTURES AND METHODS FOR ANAEROBIC BIOREMEDIATION” (priority 2009, published 2012) can be followed below.

The subject of the assay is Dehalococcoides. As to the kind of experiment: qRT-PCR of Dehalococcoides 16S rRNA genes in BDI cultures. The settings on record: for effect on growth of Dehalococcoides in BDI cultures: 1.5 μM TCC or 35 μM TCS; for Dehalococcoides 16S rRNA gene copies, day 27 / Dehalococcoides 16S rRNA gene copies, initial: BDI with 1.5 μM TCC or 35 μM TCS. In kind it is cell-based. The method, then:
Quantitative real-time PCR (qRT-PCR) was performed for enumeration of general 16S rRNA genes and Dehalococcoides 16S rRNA genes in culture DehaloR̂2 and Bio-Dechlor INOCULUM. The primers used for general 16S rRNA genes were Bac1055F (5′-ATG GYT GTC GTC ACCT-3′) and Bac1392R (5′-ACG GGC GGT GTG TAC-3′) (Ritalahti et al., 2006), and the probe was Bac16sTaq (FAM-CAA CGA GCG CAA CCC/3-BHQ-1/). The final volume of PCR reactions was 10 μL, and the final concentration of each chemical in a single reaction tube was: 1× RealMasterMix (Fisher Scientific, Pittsburgh, Pa.), 300 nM Probe, 300 nM each Primer, and 130 nM DNA samples. The PCR conditions were as follows: 2 min at 95° C. followed by 40 cycles of 10 s at 95° C., 20 s at 56° C. and 20 s at 68° C. The primers used for Dehalococcoides 16S rRNA genes were Dhc1200F (5′-CTGGAGCTAATCCCCAAAGCT-3′) and Dhc1271R (5′-CAA CTT CAT GCA GGC GGG-3′), and the probe was Dhc1240Pr (FAM-TCCTCAGTTCGGATTGCAGGC TGAA/3-BHQ-1) (He et al., 2003b). The final volume of PCR reactions was 10 μL, and the final concentration of each chemical in a single reaction tube was: 1× RealMasterMix (Fisher Scientific, Pittsburgh, Pa.), 200 nM Probe, 700 nM each Primer, and 130 nM DNA samples. The PCR conditions were as follows: 2 min at 95° C. followed by 40 cycles of 15 s at 95° C., 20 s at 58° C. and 20 s at 68° C.
Quantitative Real time PCR (qRT-PCR) was carried out in a spectrofluorimetric thermal cycler (Master cycler, epgradient S, Eppendorf). Calibration curves were performed in triplicate and a linear range of 6 orders of magnitude was obtained. Plasmids containing Dehalococcoides strain BAV1 16S rRNA genes were used as standards to construct general 16S rRNA genes and Dehalococcoides 16S rRNA genes calibration curves. The slopes of the calibration curves for general 16S rRNA genes and Dehalococcoides 16S rRNA genes were −3.46 and −3.94, and the Y intercepts were 38 and 44.2, respectively.
DNA Extraction and Quantitative Real-Time PCR. The BDI cultures and DehaloR^2 cultures were shaken vigorously first and then 10 ml of the mixed liquid was removed with a sterile syringe and dispensed into 10 1.5 ml micro centrifuge tubes. These micro centrifuge tubes were then centrifuged at 13,000 rpm for 15 min in order to make a pellet, and the pellet was used for DNA extraction. Qiagen DNeasy Blood & Tissue Kit with modifications to enhance lysis was used for DNA isolation from cultures. DNA samples were stored at −20° C.
Quantitative real-time PCR (qRT-PCR) was performed for enumeration of general 16S rRNA genes and Dehalococcoides 16S rRNA genes in BDI culture without TCC&TCS, BDI culture with 1.5 μM TCC, BDI culture with 35 μM TCS, D DehaloR̂2 culture without TCC&TCS, DehaloR^2 culture with 1.5 μM TCC and DehaloR̂2^2 culture with 35 μM TCS.
The primers used for Dehalococcoides 16S rRNA genes were Dhc1200F (5′-[…]-3′) and Dhc1271R (5′-CAACTTCATGCAGGCGGG-3′), and the probe was Dhc1240Pr (FAM-[…]/3-BHQ-1) (He et al., 2003b). The final volume of PCR reactions was 10 μL, and the final concentration of each chemical in a single reaction tube was: 1× RealMasterMix (Fisher Scientific, Pittsburgh, Pa.), 200 nM Probe, 700 nM each Primer, and 130 nM DNA samples. The PCR conditions were as follows: 2 min at 95° C. followed by 40 cycles of 15 s at 95° C., 20 s at 58° C. and 20 s at 68° C.
The qRT-PCR was carried out in a spectrofluorimetric thermal cycler (Master cycler, epgradient S, Eppendorf). Calibration curves were performed in triplicate and a linear range of 6 orders of magnitude was obtained. Plasmids containing Dehalococcoides strain BAV1 16S rRNA genes were used as standards to construct general 16S rRNA genes and Dehalococcoides 16S rRNA genes calibration curves. The slopes of the calibration curves for general 16S rRNA genes and Dehalococcoides 16S rRNA genes were −3.46 and −3.94, and the Y intercepts were 38 and 44.2, respectively.
For orientation: In qPCR the cycle at which signal appears reflects the starting amount.

For the compound `O=C(Nc1ccc(Cl)cc1)Nc1ccc(Cl)c(Cl)c1` [TCC, 3-(4-chlorophenyl)-1-(3,4-dichlorphenyl) urea], the “effect on growth of Dehalococcoides in BDI cultures” value is “significantly inhibited the growth of Dehalococcoides”; the “Dehalococcoides 16S rRNA gene copies, day 27” value is on record as 1.9×10^7 gene copies/ml; the “Dehalococcoides 16S rRNA gene copies, initial” value is 6.1×10^7 gene copies/ml.

Regarding `Oc1cc(Cl)ccc1Oc1ccc(Cl)cc1Cl` [TCS, 5-chloro-2-[2,4-dichloro-phenoxy]-phenol], the “effect on growth of Dehalococcoides in BDI cultures” value is reported as “significantly inhibited the growth of Dehalococcoides”; the “Dehalococcoides 16S rRNA gene copies, day 27” value was 9.4×10^6 gene copies/ml; the “Dehalococcoides 16S rRNA gene copies, initial” value is on record as 8.9×10^7 gene copies/ml.
